Laboratory results as given in ChEMBL document CHEMBL5038606 (J Med Chem, 2022).
In brackets after ≈: the same amount, converted by molar mass. Blank lines part the entries; values can stand above or below the compound they belong to.

Assays:
Coagulation factor XI = Coagulation factor XI (Homo sapiens, UniProt P03951); assay: Binding affinity to human coagulation factor 11a using L-Pyroglutamyl-L-prolyl-L-arginine p-Nitroaniline as substrate assessed as inhibition constant measured upto 120 mins by spectrophotometric analysis
[1] = Metabolic stability in human liver microsomes assessed as half life; type: ADME, Microsome
Plasma = assay: Anticoagulant activity in human plasma assessed as activated partial thromboplastin time; type: functional
[2] = Metabolic stability in Sprague-Dawley rat liver microsomes assessed as half life; type: ADME, Microsome; parameters: dose or concentration left out as unconfirmed
[3] = Half life in Sprague-Dawley rat at 1.10 mg/kg, po or 0.55 mg/kg, iv; type: ADME, organism-based; conditions: in vivo, dose 1.1 mg/kg
[4] = Volume of distribution at steady state in Sprague-Dawley rat at 1.10 mg/kg, po or 0.55 mg/kg, iv; type: ADME, organism-based; conditions: in vivo, dose 1.1 mg/kg, read-out: Vdss
[5] = Oral bioavailability in Sprague-Dawley rat at 1.10 mg/kg; type: ADME, organism-based; conditions: in vivo, dose 1.1 mg/kg
[6] = Apparent permeability across apical to basolateral side in human Caco2 cells; type: ADME, cell-based; conditions: Caco-2, read-out: permeability
[7] = AUC in Sprague-Dawley rat at 1.10 mg/kg, po; type: ADME, organism-based; parameters: dose 1.1 mg/kg; conditions: in vivo, 1.1 mg/kg
[8] = Clearance in Sprague-Dawley rat at 1.10 mg/kg, po or 0.55 mg/kg, iv; type: ADME, organism-based; conditions: in vivo, dose 1.1 mg/kg
[9] = Protein binding in Sprague-Dawley rat plasma assessed as bound fraction; type: ADME, cell-free; parameters: dose or concentration left out as unconfirmed
[10] = Aqueous solubility of the compound at pH 6.5; type: physicochemical; conditions: aqueous medium
[11] = Aqueous solubility of the compound at pH 1.0; type: physicochemical; conditions: aqueous medium
[12] = Fraction unbound in human plasma; type: ADME, cell-free
[13] = Clearance in Sprague-Dawley rat at 1.06 mg/kg, po or 0.53 mg/kg, iv; type: ADME, organism-based; conditions: in vivo
[14] = Half life in Sprague-Dawley rat at 1.06 mg/kg, po or 0.53 mg/kg, iv; type: ADME, organism-based; conditions: in vivo
[15] = AUC in Sprague-Dawley rat at 1.06 mg/kg, po; type: ADME, organism-based; parameters: dose 1.06 mg/kg; conditions: in vivo
[16] = Oral bioavailability in Sprague-Dawley rat at 1.06 mg/kg; type: ADME, organism-based; conditions: in vivo
[17] = Volume of distribution at steady state in Sprague-Dawley rat at 1.06 mg/kg, po or 0.53 mg/kg, iv; type: ADME, organism-based; conditions: in vivo, read-out: Vdss
Oryctolagus cuniculus = assay: Antithrombotic activity in New Zealand White rabbit model of electrically-induced carotid artery thrombosis assessed as inhibition of thrombosis formation by measuring increase in bleeding time administered as iv bolus dose and subsequently administered as iv infusion 30 mins prior to injury; type: functional, organism-based

Chain of Coagulation factor XI (P03951 19-387 limits assumed): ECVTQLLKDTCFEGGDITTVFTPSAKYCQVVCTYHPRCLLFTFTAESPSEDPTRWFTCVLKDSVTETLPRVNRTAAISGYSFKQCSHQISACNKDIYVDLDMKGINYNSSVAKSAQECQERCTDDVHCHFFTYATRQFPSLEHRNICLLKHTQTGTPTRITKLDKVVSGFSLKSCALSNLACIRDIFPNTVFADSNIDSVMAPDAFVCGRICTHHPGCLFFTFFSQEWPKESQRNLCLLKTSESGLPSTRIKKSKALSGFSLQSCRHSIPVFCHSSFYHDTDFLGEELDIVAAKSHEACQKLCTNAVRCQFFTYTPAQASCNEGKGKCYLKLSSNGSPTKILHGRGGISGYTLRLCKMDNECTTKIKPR
Chain of Coagulation factor XI (P03951 388-625 limits assumed): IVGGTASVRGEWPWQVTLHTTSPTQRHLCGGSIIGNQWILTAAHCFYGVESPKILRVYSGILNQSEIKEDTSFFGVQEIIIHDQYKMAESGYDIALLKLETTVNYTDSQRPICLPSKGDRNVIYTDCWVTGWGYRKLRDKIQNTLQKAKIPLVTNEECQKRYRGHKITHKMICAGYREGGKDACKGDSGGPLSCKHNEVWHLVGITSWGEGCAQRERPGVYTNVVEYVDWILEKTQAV

Ki (Coagulation factor XI): 171 nM
SMILES: C[C@@H]1CCC[C@H](N2CCC(c3c(F)ccc(Cl)c3F)=CC2=O)c2cc(ccn2)-c2nn(C)cc2NC1=O

half-life [1]: 1.93 h
SMILES: C[C@@H]1CCC[C@H](n2cnc(-c3cc(Cl)ccc3-n3cc(Cl)nn3)cc2=O)c2cc(ccn2)-c2c(cnn2C)NC1=O
EC1.5 (Plasma): 0.3 µM

Ki (Coagulation factor XI): 2.7 nM
SMILES: C[C@@H]1CCC[C@H](N2CCC(c3cc(Cl)ccc3-n3ccnc3)=CC2=O)c2cc(ccn2)-c2c(cnn2C)NC1=O
EC1.5 (Plasma): 0.6 µM

half-life [2]: > 2 h | half-life [3]: 0.5 h | half-life [1]: 1.67 h | Vd [4]: 1.2 L/kg | bioavailability [5]: 7% | Papp A→B [6]: < 1.5 ×10⁻⁶ cm/s | AUC [7]: 0.068 µM·h | clearance [8]: 42 mL/min/kg | fraction unbound [9]: 0.249
SMILES: C[C@@H]1CCC[C@H](N2CCC(c3cc(Cl)ccc3-n3ccnn3)=CC2=O)c2cc(ccn2)-c2c(cnn2C(F)F)NC1=O
EC1.5 (Plasma): 0.45 µM

solubility [10]: 0.15 µg/mL (≈ 0.285 µM) | solubility [11]: 3 µg/mL (≈ 5.7 µM) | fraction unbound [12]: 0.007
SMILES: C[C@@H]1CCC[C@H](N2CCC(c3c(F)ccc(Cl)c3F)=CC2=O)c2cc(ccn2)-c2c(cnn2C)NC1=O

clearance [13]: 17 mL/min/kg | half-life [14]: 1.2 h | half-life [2]: > 2 h | half-life [1]: > 2 h | AUC [15]: 0.3 µM·h | bioavailability [16]: 18% | Vd [17]: 1.4 L/kg | Ki (Coagulation factor XI): 0.07 nM | fraction unbound [9]: 0.06
SMILES: C[C@@H]1CCC[C@H](N2CCC(c3cc(Cl)ccc3-n3cc(Cl)nn3)=CC2=O)c2cc(ccn2)-c2c(cnn2C(F)F)NC1=O
EC1.5 (Plasma): 0.39 µM

half-life [1]: 0.1 h
SMILES: C[C@@H]1CCC[C@H](N2CCC(c3cc(Cl)ccc3-n3ccnn3)=CC2=O)c2cc(ccn2)-c2c(cnn2C2CCC2)NC1=O
EC1.5 (Plasma): 3.04 µM

Ki (Coagulation factor XI): 548 nM
SMILES: C[C@@H]1CCC[C@H](N2CCC(c3c(F)ccc(Cl)c3F)=CC2=O)c2cc(ccn2)-c2[nH]ncc2NC1=O

SMILES: COC(=O)Nc1ccc2c(c1)NC(=O)[C@H](C)CCC[C@H](N1CCC(c3c(F)ccc(Cl)c3F)=CC1=O)c1cc-2ccn1
EC50 (Oryctolagus cuniculus): 375 nM
